Test results as given in ChEMBL document CHEMBL5244230, “Artemisinin-derived hybrids and their anticancer activity” (Eur J Med Chem, 2020).

What was measured:
[1] = Antiproliferative activity against human Renal carcinoma cell; assay type: functional, cell-based
Ovarian cancer cell line [2] = test: Potency index, ratio of artemisinin IC50 to test compound IC50 for antiproliferative activity against human Ovarian cancer cell line assessed as inhibition of cell growth; assay type: functional
Breast carcinoma cell [3] = test: Antiproliferative activity against human Breast cancer cell line; assay type: functional, cell-based
Breast carcinoma cell [4] = test: Potency index, ratio of artemisinin IC50 to test compound IC50 for antiproliferative activity against human Breast carcinoma cell assessed as inhibition of cell growth; assay type: functional
leukaemia cell line = test: Potency index, ratio of artemisinin IC50 to test compound IC50 for antiproliferative activity against human leukaemia cell line assessed as inhibition of cell growth; assay type: functional
P388/ADR = test: Potency index, ratio of doxorubicin IC50 to test compound IC50 for antiproliferative activity against mouse P388/ADR cells assessed as reduction in cell viability measured after 72 hrs; assay type: functional
Prostatic carcinoma cell = test: Potency index, ratio of artemisinin IC50 to test compound IC50 for antiproliferative activity against human Prostatic carcinoma cell assessed as inhibition of cell growth; assay type: functional
Melanoma cell line [5] = test: Antiproliferative activity against human Melanoma cell line; assay type: functional, cell-based
[6] = Antiproliferative activity against human leukaemia cell line; assay type: functional, cell-based
Melanoma cell line [7] = test: Potency index, ratio of artemisinin IC50 to test compound IC50 for antiproliferative activity against human Melanoma cell line assessed as inhibition of cell growth; assay type: functional
Ovarian cancer cell line [8] = test: Antiproliferative activity against human Ovarian cancer cell line; assay type: functional, cell-based
TRAMP-C2H = test: Antiproliferative activity against mouse TRAMP-C2H cells; assay type: functional, cell-based
C2G cell line = test: Antiproliferative activity against mouse C2G cell line; assay type: functional, cell-based
C2D cell line = test: Antiproliferative activity against mouse C2D cell line; assay type: functional, cell-based
TRAMP-C1A = test: Antiproliferative activity against mouse TRAMP-C1A cells; assay type: functional, cell-based
A549 [9] = test: Antiproliferative activity against human A549 cells assessed as cell growth inhibition by MTT assay; assay type: functional, cell-based
SMMC-7721 = test: Antiproliferative activity against human SMMC-7721 cells; assay type: functional, cell-based
PC-3 = test: Antiproliferative activity against human PC-3 cells; assay type: functional, cell-based
HCT-15 [10] = test: Antiproliferative activity against human HCT-15 cells assessed as cell growth inhibition by MTT assay; assay type: functional, cell-based
MDA-MB-231 [11] = test: Antiproliferative activity against human MDA-MB-231 cells; assay type: functional, cell-based; conditions: Homo sapiens, MDA-MB-231
HCT-15 [12] = test: Antiproliferative activity against human HCT-15 cells assessed as inhibition of cell growth at 50 uM relative to control; assay type: functional; parameters: scale not given: the % may be the effect or the level left
MCF7 = test: Anticancer activity against human MCF7 cells; assay type: functional, cell-based
THP-1 = test: Antiproliferative activity against human THP-1 cells assessed as inhibition of cell growth at 50 uM relative to control; assay type: functional; parameters: scale not given: the % may be the effect or the level left
A-431 = test: Antiproliferative activity against human A-431 cells; assay type: functional, cell-based
MDA-MB-231 [13] = test: Antiproliferative activity against human MDA-MB-231 cells assessed as reduction in cell viability; assay type: functional, cell-based
K562 = test: Antiproliferative activity against human K562 cells; assay type: functional, cell-based
A549 [14] = test: Antiproliferative activity against human A549 cells assessed as inhibition of cell growth at 50 uM relative to control; assay type: functional; parameters: scale not given: the % may be the effect or the level left
HEp-2 = test: Antiproliferative activity against human HEp-2 cells assessed as inhibition of cell growth at 50 uM relative to control; assay type: functional; parameters: scale not given: the % may be the effect or the level left
HEK293 = test: Antiproliferative activity against human HEK293 cells; assay type: functional, cell-based
COLO 205 = test: Antiproliferative activity against human COLO 205 cells; assay type: functional, cell-based
HepG2 = test: Antiproliferative activity against human HepG2 cells assessed as cell growth inhibition by MTT assay; assay type: functional, cell-based
A549 [15] = test: Antiproliferative activity against human A549 cells; assay type: functional, cell-based
[16] = Cytotoxicity against human HCEC cells; assay type: toxicity, cell-based

In the case of `C[C@H]1[C@@H](OC/C(=N\O)O[C@H]2O[C@@H]3O[C@@]4(C)CC[C@H]5[C@H](C)CC[C@@H]([C@H]2C)[C@@]35OO4)O[C@@H]2O[C@@]3(C)CC[C@H]4[C@H](C)CC[C@@H]1[C@@]24OO3`, the IC50 [1] is reported as 0.055 µM, the “Ratio IC50” value (Ovarian cancer cell line [2]) is reported as “>=4” and the IC50 (Breast carcinoma cell [3]) is reported as 0.055 µM. The “Ratio IC50” value (Breast carcinoma cell [4]) was “>=4”, the “Ratio IC50” value (leukaemia cell line) was “>=4” and the “Ratio IC50” value (P388/ADR) was “>=4”. The “Ratio IC50” value (Prostatic carcinoma cell) was “>=4”, the IC50 (Melanoma cell line [5]) was 0.055 µM and the IC50 [6] was 0.055 µM. The “Ratio IC50” value (Melanoma cell line [7]) was “>=4” and the IC50 (Ovarian cancer cell line [8]) was 0.055 µM.
For `C[C@H]1[C@@H](OC(COC(=O)c2cc[n+]([O-])cc2)C[C@H]2O[C@@H]3O[C@@]4(C)CC[C@H]5[C@H](C)CC[C@@H]([C@H]2C)[C@@]35OO4)O[C@@H]2O[C@@]3(C)CC[C@H]4[C@H](C)CC[C@@H]1[C@@]24OO3` (stereo partly drawn), the IC50 (TRAMP-C2H) was 0.0361 µM, the IC50 (C2G cell line) was 0.0361 µM and the IC50 (C2D cell line) was 0.0361 µM. The IC50 (TRAMP-C1A) was 0.0361 µM.
For `C[C@@H]1CC[C@H]2[C@@H](C)C(=O)O[C@@H]3O[C@@]4(C)CC[C@@H]1[C@]32OO4` [ARTEMISININ], the IC50 [1] was ≥ 40 µM, the IC50 (A549 [9]) was > 300 µM and the IC50 (Breast carcinoma cell [3]) was ≥ 40 µM. The IC50 (SMMC-7721) was 0.44 µM, the IC50 (PC-3) was 39 µM and the IC50 (HCT-15 [10]) was > 300 µM. The IC50 (MDA-MB-231 [11]) was 39 µM, the Activity (HCT-15 [12]) was 21% and the IC50 (MCF7) was > 50 µM. The Activity (THP-1) was 21%, the IC50 (A-431) was 39 µM and the IC50 (MDA-MB-231 [13]) was > 50 µM. For the same compound, the IC50 (K562) was 39 µM, the Activity (A549 [14]) was 21% and the Activity (HEp-2) was 21%. The IC50 (HEK293) was 39 µM, the IC50 (COLO 205) was 39 µM and the IC50 (HepG2) was > 300 µM. The IC50 (Melanoma cell line [5]) was ≥ 40 µM, the IC50 (A549 [15]) was > 50 µM and the IC50 [16] was > 50 µM. The IC50 [6] was ≥ 40 µM and the IC50 (Ovarian cancer cell line [8]) was ≥ 40 µM.
